Entries after “also recorded” stand apart in the source; their conditions may differ.
Experiments:
Assay type in all cases: cell-based, human
[1] = system: fibrin polymerization in whole blood; assay: Sonorheometry of whole blood: coagulation plasma factors and fibrin polymerization (GPRP titration); settings: kaolin-activated citrated whole blood, 5 volunteers; GPRP 0, 1, 2, 4, 8 mM
Method: (§1) Blood samples were obtained from a peripheral vein of the arm of a patient into six 1.8 ml Vacutainers™ (Becton Dickinson, Franklin Lakes, N.J.) containing 3.2% (0.105M) sodium citrate to prevent coagulation within the tubes. The first tube was discarded, while the remaining tubes were placed on a rocker table and analyzed sequentially starting thirty minutes after the draw. For all the experiments described here, samples were obtained from a total of eight volunteers (four male and four female) with age range of twenty-three to thirty years (mean and standard deviation of 25.75±3.3 years) and with no history of thrombotic or hemorrhagic disorders. Ultrasound pulses having 10 Mhz center frequency were applied, PRF was adaptively adjusted with the range of about 25 Hz to about 12.8 kHz. Automated measurements having a one second acquisition time were performed every six seconds.
(§2) In a typical experiment, 1 ml of citrated blood was pipetted into a 4 ml clear polystyrene cuvette 142 along with 0.5 mg of kaolin activator to start coagulation through activation of the intrinsic pathway and 62 μl of 0.2M CaCl2 to reverse the anticoagulant effect of the sodium citrate. Other reagents were also added as required by the specific study performed. Phosphate Buffer Saline (PBS) solution was added to maintain identical blood dilution. Sonorheometry data acquisition was initiated one minute after all the reagents were pipetted into the sample, and measurements were performed every six seconds.
Gly-Pro-Arg-Pro (GPRP) was obtained from Calbiochem (EMD Chemicals Inc., Gibbstown, N.J.) with 99.1% purity as determined by HPLC. GPRP was dissolved in PBS into 100 mM stock. Kaolin was obtained in powder form (Sigma Aldrich, St. Louis, Mo.) and suspended in sterile sodium chloride solution (Becton Dickinson, Franklin Lakes, N.J.). Monoclonal antibody abciximab (ReoPro®, Eli Lilly and Company, Indianapolis, Ind.) was obtained in a concentration of 2 mg/ml. The original solution was diluted by a factor of five by adding 200 μL of PBS into 50 μl of the original ReoPro solution. The serine protease abbokinase (urokinase-type Plasminogen Activator, or uPA, Hyphen Biomed, Neuville-sur-Oise, France) was obtained in a concentration of 1 unit/μl.
(§3) The raw ultrasound data were transferred from the custom PCB 110 to the laptop computer 150 through USB interface 112 and analyzed in MATLAB (MathWorks Inc., Natick, Mass.). […]
(§4) The sonorheometry parameters were calculated by fitting values 20 T to a sigmoidal curve 602 and evaluating the first derivative 30 of the curve 602, as shown in FIG. 8. For example, the clotting times TC1 and TC2 were calculated based on a threshold value of the derivative curve (20% of the minimum value), whereas the clotting slope CFR is the minimum of the derivative curve. […]

[2] = system: platelet aggregation in whole blood; assay: Sonorheometry of whole blood: assessment of platelet function (abciximab titration)
Method: as §1
as §2, with “Sonorheometry data acquisition was initiated one minute after all the reagents were pipetted into the sample, and measurements were performed every six seconds.” left out
(§5) Gly-Pro-Arg-Pro (GPRP) was obtained from Calbiochem (EMD Chemicals Inc., Gibbstown, N.J.) with 99.1% purity as determined by HPLC. […]
as §3, §4

[3] = system: fibrinolysis of whole blood clot; assay: Sonorheometry of whole blood: assessment of fibrinolytic proteins (urokinase titration); settings: urokinase 0, 100, 150, 200 Units per ml of blood
Method: as §1
as §2, with “Sonorheometry data acquisition was initiated one minute after all the reagents were pipetted into the sample, and measurements were performed every six seconds.” left out
as §5, §3, §4

[4] = kaolin-activated citrated whole blood

Gly-Pro-Arg-Pro [GPRP]
clot formation rate CFR (rate of fibrin polymerization) [1]: decreased
final clotting time TC2 [1]: increase with the concentration of GPRP
initial clotting time TC1 [1]: increase with the concentration of GPRP
stiffness S (final stiffness of the formed clot) [1]: decreased

abciximab: monoclonal antibody; inhibitor of platelet aggregation blocking the IIb/IIIa receptor
other parameters describing the dynamics of clot formation and dissolution ([2]; abciximab 0, 2, 4, 6, 8, 12 μg/ml): did not change significantly
variation of final clot stiffness across the concentrations used ([2]; abciximab 0 to 12 μg/ml): varied by over one order of magnitude
stiffness SMAX ([2]; kaolin-activated citrated whole blood, five individuals, abciximab 0, 2, 4, 6, 8, 12 μg/ml): reduces the stiffness SMAX yielding a softer clot

urokinase
clot lysis time TL1 [3, 4]: decreased as a function of urokinase concentration
clot lysis time TL2 [3, 4]: decreased as a function of urokinase concentration
return of blood sample to a viscous fluid (clot dissolution) [3]: returned to a viscous fluid significantly faster with increasing concentrations of urokinase; also recorded: rapidly dissolved the blood clot and restored the original mechanical conditions prior to clot formation

Reference: patent US10962508B2, “Ultrasound-based method and related system to evaluate hemostatic function of whole blood” (University of Virginia Patent Foundation, priority 2009, dated 2021)
